Data taken from ChEMBL document CHEMBL2034973, “Exploring activity cliffs in medicinal chemistry” (J Med Chem, 2012).

Assays:
[1] = biological target: Procathepsin L (Homo sapiens, UniProt P07711); test: Inhibition of cathepsin L
[2] = biological target: Cathepsin B (Homo sapiens, UniProt P07858); test: Inhibition of cathepsin B
[3] = biological target: T1, Prostaglandin G/H synthase 2 (Homo sapiens, UniProt P35354); test: Inhibition of COX2
T1 sequence (P35354 whole entry): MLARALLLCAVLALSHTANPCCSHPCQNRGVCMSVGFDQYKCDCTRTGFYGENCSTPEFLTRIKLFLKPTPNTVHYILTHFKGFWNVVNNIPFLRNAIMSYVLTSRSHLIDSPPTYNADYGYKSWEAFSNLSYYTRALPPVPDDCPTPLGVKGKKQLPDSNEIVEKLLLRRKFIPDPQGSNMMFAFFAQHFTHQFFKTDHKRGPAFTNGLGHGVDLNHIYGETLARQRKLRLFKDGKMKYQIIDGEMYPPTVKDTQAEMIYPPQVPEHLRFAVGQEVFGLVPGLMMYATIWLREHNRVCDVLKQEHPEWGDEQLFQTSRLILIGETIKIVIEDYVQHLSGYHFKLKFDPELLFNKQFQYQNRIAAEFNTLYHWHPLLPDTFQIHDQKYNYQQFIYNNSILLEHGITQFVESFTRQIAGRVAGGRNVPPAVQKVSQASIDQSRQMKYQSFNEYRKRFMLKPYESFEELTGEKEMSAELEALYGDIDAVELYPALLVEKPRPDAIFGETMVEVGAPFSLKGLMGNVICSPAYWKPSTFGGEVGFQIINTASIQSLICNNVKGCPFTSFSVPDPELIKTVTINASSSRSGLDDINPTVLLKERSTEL

[4] = biological target: Prostaglandin G/H synthase 1 (Homo sapiens, UniProt P23219); test: Inhibition of COX1
Chain of Prostaglandin G/H synthase 1 (P23219 whole entry): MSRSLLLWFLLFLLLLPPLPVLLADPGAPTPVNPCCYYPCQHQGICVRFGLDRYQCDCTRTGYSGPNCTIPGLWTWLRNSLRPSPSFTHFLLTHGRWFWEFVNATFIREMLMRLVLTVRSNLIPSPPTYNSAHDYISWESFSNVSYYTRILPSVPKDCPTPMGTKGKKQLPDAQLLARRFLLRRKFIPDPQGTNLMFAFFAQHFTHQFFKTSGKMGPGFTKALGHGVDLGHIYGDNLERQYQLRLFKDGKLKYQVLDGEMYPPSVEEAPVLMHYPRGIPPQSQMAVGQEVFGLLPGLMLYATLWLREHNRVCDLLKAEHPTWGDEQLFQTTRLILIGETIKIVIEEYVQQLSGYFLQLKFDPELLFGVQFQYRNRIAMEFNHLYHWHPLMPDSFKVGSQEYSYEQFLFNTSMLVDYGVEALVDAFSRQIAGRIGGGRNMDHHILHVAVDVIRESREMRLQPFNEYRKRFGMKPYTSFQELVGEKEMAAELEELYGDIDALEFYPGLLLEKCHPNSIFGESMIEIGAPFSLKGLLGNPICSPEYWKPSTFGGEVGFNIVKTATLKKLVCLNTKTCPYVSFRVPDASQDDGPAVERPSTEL

Chain of Procathepsin L (P07711 whole entry): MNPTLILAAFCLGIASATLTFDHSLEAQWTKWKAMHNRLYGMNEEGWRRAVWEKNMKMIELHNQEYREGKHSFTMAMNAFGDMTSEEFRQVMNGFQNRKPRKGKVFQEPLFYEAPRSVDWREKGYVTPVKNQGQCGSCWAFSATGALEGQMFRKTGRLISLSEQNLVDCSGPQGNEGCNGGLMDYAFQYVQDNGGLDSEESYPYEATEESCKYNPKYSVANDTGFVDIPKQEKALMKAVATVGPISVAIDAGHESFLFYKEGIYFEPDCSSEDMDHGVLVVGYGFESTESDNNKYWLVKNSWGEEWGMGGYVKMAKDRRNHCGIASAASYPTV

| IC50 [1] [µM] | IC50 [2] [µM] | IC50 [3] [µM] | IC50 [4] [µM] | SMILES |
| --- | --- | --- | --- | --- |
| 3.6 | 102 | – | – | N#CCNC(=O)C1CCCCC1CSc1cccc(Cl)c1 (stereo unspecified) |
| 26 | 5.3 | – | – | N#CCNC(=O)C1CCCCC1CSc1ccccc1 (stereo unspecified) |
| – | – | > 10 | 0.007 | Cc1ccc(Nc2c(F)cccc2Cl)c(CC(=O)O)c1 [LUMIRACOXIB] |
